Laboratory results published in PMC7576608, “Mechanisms of telomerase inhibition by oxidized and therapeutic dNTPs” (Nature Communications, 2020).
Several values for one entry are separate records, joined by “and”; a condition that tells them apart may be missing. Equal values may be shown once. Read-outs that look alike come from different tables or passages of the source.

Biological target: telomerase (Homo sapiens, UniProt O14746)
Assay: Telomerase repeat processivity IC50: modified dNTP titrated into reactions with all four natural dNTPs
Type: biochemical
Parameters: made in house; anti-FLAG immunopurification, eluted with 3xFLAG peptide
Conditions: for YIntercept (line fit of ln(100-%LB) vs # telomere repeats) / ln(100-%LB): n1-n3; for Processivity R 1/2: replicates n1-n3
Text: In order to better understand the ability of modified dNTPs to compete with natural dNTPs for telomerase utilization, we added modified dNTPs to reactions containing all four natural dNTPs. […] The calculated IC50 determines the concentration required to reduce repeat processivity in the bulk reactions by half. However, it is important to note that bulk experiments cannot distinguish effects on individual telomeres, since extended telomeres mask unextended telomeres. Incorporation of a chain terminator during any step will terminate extension of the affected telomere, and just five critically short telomeres are sufficient to trigger senescence. Therefore, repeat processivity IC50 values are not necessarily an indicator of the inhibitory potency, but provide information on selectivity for modified dNTPs compared to natural dNTPs. […] The ability to purify sufficient quantities of tcTERT enables characterization of the catalytic nucleotide addition by pre-steady-state single turnover kinetics using a defined DNA–RNA primer–template substrate. The catalytic efficiency of incorporating a single dNTP is measured by dividing the observed nucleotide incorporation rate constant, kpol, by the equilibrium dissociation constant for dNTP binding to the tcTERT–primer–template complex (Kd)[44].
The reactions were started by the addition of 3 μl of immunopurified telomerase eluent, incubated at 37 °C for 1 h, then terminated with 2 μl of […] and heat inactivated at 65 °C for 20 min. An equal volume of loading buffer (94% formamide, 0.1× TBE, 0.1% bromophenol blue, 0.1% xylene cyanol) was added to the reaction eluent. The samples were heat denatured for 10 min at 100 °C and loaded onto a 14% denaturing acrylamide gel (7 M urea, 1× TBE) and electrophoresed for 90 min at constant 38 W. Samples were imaged using a Typhoon phosphorimager (GE Healthcare). Percent primer extension was calculated with ImageQuant TL 8.2 by measuring the intensity of each product band and dividing by the total radioactivity in the lane or total products, as indicated in the figure legends.
The processivity was calculated as described[40],[67]. Repeat processivity from the direct telomerase extension assays was calculated as R1/2 (equivalent to the half-time for decay in an exponential time course), which represents the median length of DNA product formed, expressed in terms of number of telomere repeats. First, the total volume counts for each product band extend by one or more telomere repeats were obtained using Image Quant TL. The volume counts were then normalized by dividing by the number of radiolabeled guanosines incorporated into the extended products based on the number of repeats added, termed corrected volume (corr vol). The “percent left behind” (%LB) was calculated for each product band by summing the counts for that product band and for every product band below (shorter products), divided by the total counts for the lane, and then multiplied by 100. The natural log of (100−%LB) was calculated and then plotted vs. repeat number for each product length. A linear regression line was fit to the data to determine the slope of the line. The R1/2 value was calculated by dividing −ln(2) by the slope of each fitted line (R1/2 = −ln(2)/slope).
Supplementary Fig 8. IC50 values for telomerase processivity inhibition. Telomerase reactions were conducted with cellular relevant concentrations of all four natural dNTPs and increasing concentrations of the modified dNTP analog from 0 to 10,000 μM to calculate. (a) The natural log of (100-%LB) was plotted vs repeat number. A straight line was fit to the data and the R1/2 value was calculated by dividing –ln(2) by the slope of each line. Plots shown from one experiment are […]

[1] = fit of R 1/2 vs log(concentration), 8-oxo-dATP, replicates N1-N3

Chain of telomerase (O14746 whole entry): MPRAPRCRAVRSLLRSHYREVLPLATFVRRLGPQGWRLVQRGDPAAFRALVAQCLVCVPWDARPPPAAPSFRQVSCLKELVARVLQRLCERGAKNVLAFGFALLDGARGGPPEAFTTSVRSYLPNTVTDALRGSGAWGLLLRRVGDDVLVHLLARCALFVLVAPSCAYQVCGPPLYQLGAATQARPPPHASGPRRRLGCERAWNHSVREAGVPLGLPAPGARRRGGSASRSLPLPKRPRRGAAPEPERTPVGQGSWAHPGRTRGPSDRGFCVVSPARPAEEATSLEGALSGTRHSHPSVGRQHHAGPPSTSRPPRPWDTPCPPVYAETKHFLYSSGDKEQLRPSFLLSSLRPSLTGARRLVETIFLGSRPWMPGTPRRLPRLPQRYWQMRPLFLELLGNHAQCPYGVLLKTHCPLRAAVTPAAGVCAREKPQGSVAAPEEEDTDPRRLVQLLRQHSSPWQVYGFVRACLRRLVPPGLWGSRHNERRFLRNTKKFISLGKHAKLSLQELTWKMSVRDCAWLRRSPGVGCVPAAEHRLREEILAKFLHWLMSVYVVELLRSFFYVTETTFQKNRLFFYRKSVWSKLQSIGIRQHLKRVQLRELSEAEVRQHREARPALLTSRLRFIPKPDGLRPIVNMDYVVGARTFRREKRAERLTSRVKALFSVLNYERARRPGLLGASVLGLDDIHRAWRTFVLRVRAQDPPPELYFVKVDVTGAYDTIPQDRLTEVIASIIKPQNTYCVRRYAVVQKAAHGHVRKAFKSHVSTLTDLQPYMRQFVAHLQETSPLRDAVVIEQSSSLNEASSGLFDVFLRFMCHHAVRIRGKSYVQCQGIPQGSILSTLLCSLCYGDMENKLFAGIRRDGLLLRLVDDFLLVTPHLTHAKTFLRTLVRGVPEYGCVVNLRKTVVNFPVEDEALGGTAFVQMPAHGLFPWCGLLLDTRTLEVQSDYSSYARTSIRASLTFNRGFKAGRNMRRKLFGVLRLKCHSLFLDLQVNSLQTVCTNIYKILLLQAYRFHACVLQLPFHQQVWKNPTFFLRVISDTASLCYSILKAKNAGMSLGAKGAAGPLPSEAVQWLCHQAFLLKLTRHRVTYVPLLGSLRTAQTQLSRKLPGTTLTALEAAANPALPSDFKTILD

For `Nc1ncnc2c1[nH]c(=O)n2C1CC(O)C(COP(=O)(O)OP(=O)(O)OP(=O)(O)O)O1` (centres unmarked) [8-oxo-dATP], the “YIntercept (line fit of ln(100-%LB) vs # telomere repeats)” value (8-oxo-dATP 31μM) was 3.85 and 3.01 and 3.93, the “ln(100-%LB)” value (8-oxo-dATP 31μM, telomere repeat 3) was 2.65 and 1.66 and 2.57 and the “ln(100-%LB)” value (8-oxo-dATP 31μM, telomere repeat 4) was 2.41 and 1.27 and 2.30. For the same molecule, the “Processivity R 1/2” value (8-oxo-dATP 31.25 μM) was 2.10 (2×) and 1.89, the “YIntercept (line fit of ln(100-%LB) vs # telomere repeats)” value (8-oxo-dATP 62μM) was 3.73 and 4.08 and 3.84 and the “ln(100-%LB)” value (8-oxo-dATP 62μM, telomere repeat 2) was 3.20. For the same molecule, the “ln(100-%LB)” value (8-oxo-dATP 62μM, telomere repeat 3) was 2.53 and 2.54 and 2.74, the “ln(100-%LB)” value (8-oxo-dATP 62μM, telomere repeat 4) was 2.27 and 2.24 and 2.50 and the “ln(100-%LB)” value (8-oxo-dATP 62μM, telomere repeat 5) was 2.02 and 1.94 and 2.24. The “ln(100-%LB)” value (8-oxo-dATP 62μM, telomere repeat 6) was 1.71 and 1.56 and 1.91, the “ln(100-%LB)” value (8-oxo-dATP 62μM, telomere repeat 7) was 1.38 and 1.06 and 1.53 and the “ln(100-%LB)” value (8-oxo-dATP 62μM, telomere repeat 8) was 1.13 and 0.68 and 1.26. The “Processivity R 1/2” value (8-oxo-dATP 62.5 μM) was 1.60 (2×) and 2.26, the “YIntercept (line fit of ln(100-%LB) vs # telomere repeats)” value (8-oxo-dATP 250μM) was 3.94 and 3.80 and 3.85 and the “Processivity R 1/2” value (8-oxo-dATP 250 μM) was 1.82 (2×) and 2.54. For the same molecule, the “ln(100-%LB)” value (8-oxo-dATP 250μM, telomere repeat 2) was 3.33 and 3.42 and 3.45, the “ln(100-%LB)” value (8-oxo-dATP 250μM, telomere repeat 3) was 2.64 and 2.77 and 2.84 and the “ln(100-%LB)” value (8-oxo-dATP 250μM, telomere repeat 4) was 2.37 and 2.53 and 2.60. For the same molecule, the “ln(100-%LB)” value (8-oxo-dATP 250μM, telomere repeat 5) was 2.09 and 2.29 and 2.37, the “ln(100-%LB)” value (8-oxo-dATP 250μM, telomere repeat 6) was 1.75 and 2.02 and 2.10 and the “ln(100-%LB)” value (8-oxo-dATP 250μM, telomere repeat 7) was 1.29 and 1.68 and 1.81. For the same molecule, the “ln(100-%LB)” value (8-oxo-dATP 250μM, telomere repeat 8) was 0.96 and 1.40 and 1.57, the “ln(100-%LB)” value (8-oxo-dATP 250μM, telomere repeat 9) was 0.67 and 1.15 and 1.32 and the “YIntercept (line fit of ln(100-%LB) vs # telomere repeats)” value (8-oxo-dATP 500μM) was 3.61 and 4.18 and 3.88. For the same molecule, the “Processivity R 1/2” value (8-oxo-dATP 500 μM) was 1.42 (2×) and 2.03, the “ln(100-%LB)” value (8-oxo-dATP 500μM, telomere repeat 2) was 3.10 and 3.59 and 3.36 and the “ln(100-%LB)” value (8-oxo-dATP 500μM, telomere repeat 3) was 2.50 and 3.01 and 2.60. The “ln(100-%LB)” value (8-oxo-dATP 500μM, telomere repeat 4) was 2.24 and 2.80 and 2.29, the “ln(100-%LB)” value (8-oxo-dATP 500μM, telomere repeat 5) was 1.94 and 2.56 and 2.01 and the “ln(100-%LB)” value (8-oxo-dATP 500μM, telomere repeat 6) was 1.62 and 2.28 and 1.70. For the same molecule, the “ln(100-%LB)” value (8-oxo-dATP 500μM, telomere repeat 7) was 1.26 and 1.91 and 1.22, the “ln(100-%LB)” value (8-oxo-dATP 500μM, telomere repeat 8) was 0.97 and 1.63 and 0.93 and the “YIntercept (line fit of ln(100-%LB) vs # telomere repeats)” value (8-oxo-dATP 750μM) was 4.26 and 4.00 and 3.87. The “Processivity R 1/2” value (8-oxo-dATP 750 μM) was 1.36 (2×) and 2.25, the “ln(100-%LB)” value (8-oxo-dATP 750μM, telomere repeat 2) was 3.17 and 3.44 and 3.29 and the “ln(100-%LB)” value (8-oxo-dATP 750μM, telomere repeat 3) was 2.50 and 2.85 and 2.65. For the same molecule, the “ln(100-%LB)” value (8-oxo-dATP 750μM, telomere repeat 4) was 2.17 and 2.63 and 2.39, the “ln(100-%LB)” value (8-oxo-dATP 750μM, telomere repeat 5) was 1.81 and 2.42 and 2.15 and the “ln(100-%LB)” value (8-oxo-dATP 750μM, telomere repeat 6) was 1.40 and 2.17 and 1.87. For the same molecule, the “YIntercept (line fit of ln(100-%LB) vs # telomere repeats)” value (8-oxo-dATP 1000μM) was 4.48 and 4.47 and 4.44, the “Processivity R 1/2” value (8-oxo-dATP 1000 μM) was 0.53 (2×) and 0.83 and the “YIntercept (line fit of ln(100-%LB) vs # telomere repeats)” value (8-oxo-dATP 1500μM) was 5.00 and 4.48 and 4.84. For the same molecule, the “Processivity R 1/2” value (8-oxo-dATP 1500 μM) was 0.00, the “Processivity R 1/2” value (8-oxo-dATP 2000 μM) was 0.00 and the IC50 (cellular relevant natural dNTPs, modified dNTP titrated 0 to 10,000 μM, based on repeat processivity, mean ± SD, read-out: Telomerase processivity IC50) was 946 ± 49 µM. For the same molecule, the LogIC50 (fit of R 1/2 vs log(concentration μM), 8-oxo-dATP, replicates N1-N3) was 2.95 and 2.99 (2×), the “Bottom (best-fit value)” value [1] was -0.12 and 0.69 and -0.000954 and the HillSlope [1] was -4.30 and -46.77 and -16.13. For the same molecule, the “Span (best-fit value)” value [1] was 1.94 and 1.65 and 2.29, the “Top (best-fit value)” value [1] was 1.81 and 2.33 and 2.29 and the IC50 (log of processivity IC50 (concentration in μM), Supplementary Fig 8b, read-out: Log IC50 (converted)) was 794 µM. For the same molecule, the IC50 (repeat processivity R 1/2, 8-oxo-dATP, mean of N1-N3, read-out: Mean IC50) was 946 µM and the IC50 (repeat processivity R 1/2, 8-oxo-dATP, single replicates N1-N3, read-out: IC50) was 890 µM and 982 µM and 966 µM.
